Experimental data: patent publication US20080306155A1, “METHOD FOR TREATING RENAL DISEASE” (priority 2004, published 2008)
Entries after “also recorded” stand apart in the source; their conditions may differ.

How the values were obtained:
[1] = Plasma levels of the 20-HETE analogs after s.c. injection (LC/MS); format: in vivo, rat; settings: rats, 10 mg/kg s.c.; for peak blood levels: 10 mg/kg
Procedure: Measurement of plasma levels of the 20-HETE analogs: A chronic polyvinyl catheter was implanted into the jugular vein and exteriorized at the back of the neck of SD rats several days prior to an experiment. After a three-day recovery period, the rats (n=4 in each group) received a s.c. injection of either 5, 14-20-HEDE (10 mg/kg) or 5, 14-20-HEDGE (10 mg/kg), and blood samples were collected 1, 4, 8 and 24 hours after administration. Plasma levels of 5, 14-20-HEDE and 5, 14-20-HEDGE were measured by liquid chromatography-mass spectrometry (LC/MS) using an Applied Biosystems API 3000 LC/MS/MS (Foster City, Calif.).

isolated glomeruli = experiment: Albumin permeability (Palb) of isolated glomeruli; format: cell-based, rat; settings: for increase in Palb produced by TGF-•1 after pretreatment of glomeruli: pretreated with 1 μmol/L for 15 minutes at 37° C., then TGF-•1 10 ng/ml
Procedure: Measurement of Albumin Permeability (Palb): Glomeruli were isolated using the sieving method as previously described in a medium containing 5 g/dl of bovine serum albumin (BSA). See, Sharma R, et al, Kidney Intl. 58:131-136 (2000); and Savin V, et al. J. Am. Soc. Nephrol. 3:1260-1269 (1992). In each experimental condition, Palb was determined from the change in glomerular volume (•V) after exchange of the bath with medium containing 1 g/dl albumin. Palb was calculated as 1−(•Vexperimental/•Vcontrol) where glomeruli from SD rats fed a normal-salt diet were used to provide the control value for each experiment. To verify that lack of •Vs in Dahl S rats were related to changes in Palb rather than to changes in mechanical properties of glomeruli, additional studies were performed in which the glomeruli were exposed to a 5% solution of high molecular weight dextran.
In other experiments, we examined the interaction of TGF-• and 20-HETE on Palb in glomeruli isolated from SD rats and Dahl S rats fed either a LS diet or a HS diet for 4 days. Glomeruli were preincubated with vehicle or TGF-•1 (10 ng/ml) for 15 minutes at 37° C. and changes in Palb were determined. Glomeruli were also pretreated with 5, 14-20-HEDE (WIT003) (1 μmol/L; Taisho Pharmaceutical; Tokyo, Japan) (Alonso-Galicia et al., supra; and Yu et al., supra), for 15 minutes at 37° C. and the Palb response to TGF-• 1 (10 ng/ml) was redetermined. A minimum of 5 glomeruli from each rat were studied, and the experiments were performed using •5 rats per treatment group.

[2] = tested on: renal I/R injury in SD rats; experiment: Renal I/R injury model (Example 3): plasma creatinine, tubular injury, TUNEL; format: in vivo, rat; settings: for area occupied by necrotic tubular epithelium or cast material (tubular injury score): compared to vehicle or HET0016-treated animals; for histological appearance of tubular injury (H&E, fluorescence microscopy): corticomedullary junction; for plasma creatinine: SD rats, 24 h after 30 min ischemia, s.c. 30 min prior: HET0016 5 mg/kg, 5,14-20-HEDE 10 mg/kg, 5,14-20-HEDGE 1 mg/kg; for effect on plasma creatinine 24 hours following renal I/R injury: HET0016 5 mg/kg s.c., 5,14-20-HEDGE 1 mg/kg s.c.
Procedure: Renal I/R Injury Model: Rats were anesthetized with ketamine (50 mg/kg, i.m.) and sodium pentobarbital (50 mg/kg, i.p) and were placed on a heated surgical table to maintain body temperature at 37° C. A midline abdominal incision was made to expose the kidneys, and the renal arteries and veins were bilaterally occluded for 30 minutes using microvascular clamps. The clamps were then removed, the abdominal incision was closed, and the rats were allowed to recover for 24 hours. Rats were then euthanized with sodium pentobarbital (100 mg/kg, i.p.), and blood was collected from the aorta for measurement of plasma creatinine concentration using the Jaffe reaction. Both kidneys were collected for histological analysis.
In addition, the method was repeated on four groups of rats. However, rats were pretreated with a s.c. injection of vehicle or one of three treatments 30 minutes prior to induction of renal ischemia. Group 1 served as the control group and received 1 ml/kg of a vehicle (11% sulfobutyl-•-cyclodextrin in 165 mM mannitol solution, […].); Group 2 received HET0016 (5 mg/kg, s.c.); Group 3 received 5, 14-20-HEDE (10 mg/kg; s.c.); and Group 4 received 5, 14-20-HEDGE (1 mg/kg; s.c.).
Analysis of the degree of tubular injury: The kidneys of rats subjected to renal I/R injury were fixed in 10% formalin and paraffin sections (3•m) were prepared and stained with hematoxylin and eosin. The sections were examined at low power using a 2× objective of an Olympus BHT-2 (Olympus; Center Valley, Pa.) epifluorescent microscope equipped with a 540-nm excitation filter and a 590-nm emission filter. For each specimen, five randomly chosen outer medullary fields were photographed at 100× magnification using a digital color camera and following appropriate thresholding. The percentage of the area containing fluorescent necrotic tubular epithelium or cast material was quantified using Image-Pro Plus image analysis software (version 6.2; Media Cybernetics, Inc.; Bethesda, Md.). TUNEL labeling was also performed to assess the degree of apoptosis following renal LIR injury using an ApopTag Plus In Situ Apoptosis Fluorescein Detection Kit (Chemicon International; Temecula, Calif.) following the manufacturer's protocol. Apoptotic nuclei were visualized at approximately 100× by fluorescence microscopy and quantified using Metamorphi Image Analysis Software (Molecular Devices Corp.; Dowington, Pa.). A total of five fields were analyzed per section, with one section analyzed per animal. Data were expressed as the percentage of TUNEL positive nuclei per total number of DAPI stained cells.

[3] = tested on: renal ischemia-reperfusion injury in SD rats; experiment: Renal ischemia-reperfusion injury model (Example 2); format: in vivo, rat; settings: 30 min ischemia, 24 h reperfusion; for degree of renal I/R injury reflected by rise in plasma creatinine concentration: HET0016 5 mg/kg s.c., WIT003 10 mg/kg s.c., 30 min prior, vs vehicle
Procedure: Renal Ischemia-Reperfusion Injury Model: Experiments were performed in male SD rats anesthetized with pentobarbital (50 mg/kg). The kidneys were exposed via a midline incision and the renal arteries isolated. Adjustable vascular occluders were placed on both the right and left renal arteries to completely occlude blood flow to the kidneys for 30 minutes. After the period of complete renal ischemia, the clamps were removed and the kidneys were reperfused. The surgical incisions were closed with 2-0 silk suture and the animals were allowed to fully recover from anesthesia. Twenty four hours later, the rats were reanesthetized with pentobarbital, and a sample of blood collected from the aorta for measurement of plasma creatinine concentration using an autoanalyzer. The kidneys were collected, fixed in 10% formalin solution, and paraffin sections prepared and stained with H&E to evaluate the degree of tubular necrosis and injury.
Three groups of rats were studied. Group 1 rats were treated with vehicle and served as the control animals. Group 2 rats were treated with HET0016 (5 mg/kg, s.c.) 30 minutes prior to renal ischemia. Group 3 rats were given 5, 14-20-HEDE (WIT003) (10 mg/kg, s.c.) by injection 30 minutes prior to renal ischemia.

renal I/R injury in rats = experiment: Renal hemodynamics (laser-Doppler flowmetry, arterial pressure) during and after renal I/R; format: in vivo, rat
Procedure: Assessment of renal hemodynamics: Additional experiments were performed to determine if the renoprotective effect of 5, 14-20-HEDGE on renal I/R injury was associated with changes in renal cortical and medullary hemodynamics. Rats were anesthetized with ketamine (50 mg/kg, i.m.) and Inactin (100 mg/kg, i.p.; Sigma; St. Louis, Mo.). Catheters were placed in the femoral artery for continuous measurement of arterial pressure and in the femoral vein for i.v. infusions. The left kidney was then exposed and placed in a kidney holder and a single-mode optical fiber was implanted 4 mm into the kidney for measurement of MBF by laser-Doppler flowmetry (LDF) as previously described. See, Zou A, et al., J. Hypertens. 13:557-566 (1995). CBF was measured by a second laser-Doppler probe held in static position by a micromanipulator 1 mm above the renal cortex. After surgery and a 30-minute stabilization period, MAP, CBF and MBF were continuously recorded using WinDaq data acquisition software (DATAQ Instruments Inc.; Akron, Ohio) during a 5-minute control period. Baseline MAP, MBF and CBF were determined and then 5, 14-20-HEDGE (1 mg/kg s.c.) or vehicle (1 ml/kg s.c.) were administered. Thirty minutes later, the blood supply to the left kidney was occluded for 45 minutes. MAP, MBF and CBF were recorded during ischemia and for 3 hours following reperfusion.

[4] = 1 mg/kg s.c., vs vehicle, listed as 5, 14-20-HEDGE

| SMILES | half-life [1] | peak blood levels [1] | Palb after TGF-•1 in glomeruli pretreated with 20-HETE analog (isolated glomeruli; glomeruli from Dahl S rats fed HS diet for 4 days, TGF-•1 10 ng/ml) | Palb, baseline after pretreatment with 20-HETE analog (isolated glomeruli; glomeruli from Dahl S rats fed HS diet for 4 days, before TGF-•1) | baseline Palb after pretreatment of glomeruli (isolated glomeruli; glomeruli pretreated with 1 μmol/L for 15 minutes at 37° C., SD rats) | increase in Palb produced by TGF-•1 after pretreatment of glomeruli (isolated glomeruli; SD rats, listed as 20-HETE analog) | increase in Palb produced by TGF-•1 after pretreatment of glomeruli (isolated glomeruli; SD rats, listed as WIT003) | reduction of plasma creatinine ([2]; 10 mg/kg s.c., 24 h after renal I/R, vs vehicle) | area occupied by necrotic tubular epithelium or cast material (tubular injury score) ([2]; 24 h after renal I/R, listed as 5, 14-20-HEDE) | histological appearance of tubular injury (H&E, fluorescence microscopy) ([2]; 24 h after renal I/R) | plasma creatinine [2] [mg/dL] | histological damage to S3 segment of the proximal tubule ([3]; 10 mg/kg s.c., data not shown) | degree of renal I/R injury reflected by rise in plasma creatinine concentration [3] | number of apoptotic nuclei (TUNEL staining) ([2]; 24 h after renal I/R, 1 mg/kg s.c., vs vehicle) | area occupied by necrotic tubular epithelium or cast material (tubular injury score) ([2]; 24 h after renal I/R) | effect on plasma creatinine 24 hours following renal I/R injury ([2]; vs vehicle) | CBF or MBF prior to the induction of renal ischemia (renal I/R injury in rats; 1 mg/kg s.c.) | post-ischemic medullary blood flow (MBF) (renal I/R injury in rats; 1 mg/kg s.c. 30 min before 45 min ischemia, 3 h reperfusion, vs vehicle, listed as 5, 14-20-HEDGE) | mean arterial pressure (MAP) (renal I/R injury in rats; [4]) | post-ischemic cortical blood flow (CBF) (renal I/R injury in rats; [4]) |
| --- | --- | --- | --- | --- | --- | --- | --- | --- | --- | --- | --- | --- | --- | --- | --- | --- | --- | --- | --- | --- |
| O=C(O)CCC/C=C\CCCCCCC/C=C\CCCCCO [5,14-20-HEDE, 20-hydroxyeicosa-5(Z),14(Z)-dienoic acid] | approximately four | 300 ng/ml and approximately 1 μM | 0.40±0.01 | 0.25±0.01 | reduced | greatly attenuated | opposed | approximately 50% | less severe renal injury; also recorded: marked reduction | less severe renal injury with only focal tubular necrosis or exfoliation of tubular cells | 1.6 ± 0.3 | reduced | significantly reduced |  |  |  |  |  |  |  |
| O=C(O)CNC(=O)CCC/C=C\CCCCCCC/C=C\CCCCCO [5,14-20-HEDGE, N-[20-hydroxyeicosa-5(Z),14(Z)-dienoyl]glycine] | approximately four | 300 ng/ml and approximately 1 μM |  |  |  |  |  |  |  | less severe renal injury with only focal tubular necrosis or exfoliation of tubular cells | 0.5 ± 0.02 |  |  | significantly less | less severe renal injury; also recorded: marked reduction | nearly completely prevent the rise | did not have a significant effect | completely prevented the post-ischemic fall in MBF | without altering; also recorded: no effect | without altering; also recorded: no effect |
| CCCCc1ccc(N=CNO)c(C)c1 [HET0016, N-hydroxy-N′-(4-butyl-2-methylphenol)-formamidine, reference compound] |  |  |  |  |  |  |  |  |  | Diffuse tubular cell denudation, tubular cell necrosis, intratubular debris and tubular casts were present | 3.8 ± 0.3 |  | significantly greater |  |  | significant increase |  |  |  |  |
